Reference: patent publication US10364471B2, “Tumor suppressor REC8 as a biomarker for gastric cancer” (The Chinese University of Hong Kong, priority 2017, dated 2019)

Tested on: REC8 mRNA expression in gastric cancer cell lines
Experiment: Demethylation treatment with 5-Aza, REC8 mRNA by RT-PCR
Assay type: cell-based, human
Details: 2 uM 5-Aza for 5 days
Procedure: Gastric cancer cells were treated with 2 uM DNA demethylation agent 5-Aza-2′-deoxycytidine (5-Aza) (Sigma-Aldrich, St Louis, Mo.) for 5 days and medium was refreshed every day.
Total RNA was extracted from cell pellets or tissues using Qiazol® reagent (Qiagen, Valencia, Calif.), and cDNA was synthesized using Transcriptor Reverse Transcriptase (Roche, Indianapolis, Ind.). RT-PCR was performed using the GoTaq® DNA polymerase (Promega). qPCR was performed using SYBR Green master mixture on HT7900 system (Applied Biosystems, Foster City, Calif.). Primers used are listed in Table 5 and also published previously.^7

Nc1ncn([C@H]2C[C@H](O)[C@@H](CO)O2)c(=O)n1 [5-Aza, 5-Aza-2′-deoxycytidine]
REC8 mRNA expression (AGS with REC8 expression/unmethylated): had no effect | REC8 mRNA expression (cell lines with REC8 down-regulated/methylated (BGC823, SNU719, NCI-N87, MKN28, AGS-EBV)): restored
